We go through three compounds from ChEMBL document CHEMBL3046934, “Effectiveness of thiamethoxam and imidacloprid seed treatments against Bemisia tabaci (Hemiptera: Aleyrodidae) on cotton” (Pest Manag Sci, 2011).

Active and inactive are the calls of the source. The calls are words filed in the database; no cut-off is given here.

In data set [1] the test system is Bemisia tabaci. As to the kind of experiment: Insecticidal activity against nymph stage of Bemisia tabaci (sweet potato whitefly) infested cotton leaves assessed as increase in mortality at 0.342 mg ai/seed measured 2 weeks post sowing to 9 weeks under field conditions relative to untreated control. It counts as functional, organism-based.
For data set [2], the system named is Bemisia tabaci. As to the kind of experiment: Insecticidal activity against adult Bemisia tabaci (sweet potato whitefly) infested cotton leaves assessed as increase in mortality at 0.342 mg ai/seed measured 2 weeks post sowing to 9 weeks under field conditions relative to untreated control. It counts as functional, organism-based.
The subject of data set [3] is Cotyledon. Nature of the data set: Drug uptake in Gossypium hirsutum (cotton) cotyledon at 0.342 mg ai/seed measured 10 days post germination under green house conditions. It counts as ADME. As to conditions: in vivo, other, 240 h.
In data set [4] the test system is Bemisia tabaci. Nature of the data set: Insecticidal activity against adult Bemisia tabaci (sweet potato whitefly) infested cotton leaves assessed as decrease in egg production at 0.342 mg ai/seed measured 10 to 40 days post germination under green house conditions relative to untreated control. Type of data set: functional, organism-based.
Data set [5] has as its system Bemisia tabaci. As to the kind of experiment: Insecticidal activity against nymph stage of Bemisia tabaci (sweet potato whitefly) infested cotton leaves assessed as increase in mortality at 0.342 mg ai/seed measured 10 to 40 days post germination under green house conditions relative to untreated control. Type of data set: functional, organism-based.
The test system of data set [6] is Bemisia tabaci. As to the kind of experiment: Insecticidal activity against adult Bemisia tabaci (sweet potato whitefly) infested cotton leaves assessed as increase in mortality at 0.342 mg ai/seed measured 10 to 40 days post germination under green house conditions relative to untreated control. Type of data set: functional, organism-based.
Data set [7] deals with Bemisia tabaci. Nature of the data set: Insecticidal activity against adult Bemisia tabaci (sweet potato whitefly) infested cotton leaves assessed as decrease in egg deposition at 0.342 mg ai/seed measured 10 to 40 days post germination under laboratory conditions relative to untreated control. It counts as functional, organism-based.
Data set [8] has as its system Bemisia tabaci. Nature of the data set: Insecticidal activity against nymph stage of Bemisia tabaci (sweet potato whitefly) infested cotton leaves assessed as increase in mortality at 0.342 mg ai/seed measured 10 to 40 days post germination under laboratory conditions relative to untreated control. Type of data set: functional, organism-based.
Data set [9] concerns Bemisia tabaci. As to the kind of experiment: Insecticidal activity against adult Bemisia tabaci (sweet potato whitefly) infested cotton leaves assessed as increase in mortality at 0.342 mg ai/seed measured 10 to 40 days post germination under laboratory conditions relative to untreated control. Type of data set: functional, organism-based.
Data set [10] concerns Bemisia tabaci. Nature of the data set: Insecticidal activity against adult Bemisia tabaci (sweet potato whitefly) infested cotton leaves assessed as effect on laid eggs at 0.342 mg ai/seed measured 10 to 40 days post germination under laboratory conditions relative to untreated control. It counts as functional, organism-based.
The subject of data set [11] is Leaf. As to the kind of experiment: Drug uptake in Gossypium hirsutum (cotton) leaf at 0.342 mg ai/seed measured 10 days post germination under green house conditions. Type of data set: ADME. As to conditions: in vivo, other, 240 h.
Data set [12] relates to Bemisia tabaci. As to the kind of experiment: Insecticidal activity against nymph stage of Bemisia tabaci (sweet potato whitefly) infested cotton leaves assessed as increase in mortality at 0.375 mg ai/seed measured 2 weeks post sowing to 9 weeks under field conditions relative to untreated control. Type of data set: functional, organism-based.
In data set [13] the test system is Bemisia tabaci. Nature of the data set: Insecticidal activity against adult Bemisia tabaci (sweet potato whitefly) infested cotton leaves assessed as increase in mortality at 0.375 mg ai/seed measured 2 weeks post sowing to 9 weeks under field conditions relative to untreated control. Type of data set: functional, organism-based.
For data set [14], the system named is Bemisia tabaci. As to the kind of experiment: Insecticidal activity against nymph stage of Bemisia tabaci (sweet potato whitefly) infested cotton leaves assessed as increase in mortality at 0.375 mg ai/seed measured 10 to 40 days post germination under green house conditions relative to untreated control. It counts as functional, organism-based.
Data set [15] concerns Bemisia tabaci. Nature of the data set: Insecticidal activity against adult Bemisia tabaci (sweet potato whitefly) infested cotton leaves assessed as increase in mortality at 0.375 mg ai/seed measured 10 to 40 days post germination under green house conditions relative to untreated control. It counts as functional, organism-based.
The subject of data set [16] is Bemisia tabaci. Nature of the data set: Insecticidal activity against adult Bemisia tabaci (sweet potato whitefly) infested cotton leaves assessed as effect on laid eggs at 0.375 mg ai/seed measured 10 to 40 days post germination under laboratory conditions relative to untreated control. It counts as functional, organism-based.
Data set [17] has as its system Bemisia tabaci. Nature of the data set: Insecticidal activity against adult Bemisia tabaci (sweet potato whitefly) infested cotton leaves assessed as decrease in egg deposition at 0.375 mg ai/seed measured 10 to 40 days post germination under laboratory conditions relative to untreated control. It counts as functional, organism-based.
In data set [18] the test system is Bemisia tabaci. Nature of the data set: Insecticidal activity against nymph stage of Bemisia tabaci (sweet potato whitefly) infested cotton leaves assessed as mortality at 0.375 mg ai/seed measured 10 to 40 days post germination under laboratory conditions relative to untreated control. It counts as functional, organism-based.
Data set [19] deals with Bemisia tabaci. As to the kind of experiment: Insecticidal activity against adult Bemisia tabaci (sweet potato whitefly) infested cotton leaves assessed as increase in mortality at 0.375 mg ai/seed measured 10 to 40 days post germination under laboratory conditions relative to untreated control. It counts as functional, organism-based.
Data set [20] deals with Bemisia tabaci. Nature of the data set: Insecticidal activity against adult Bemisia tabaci (sweet potato whitefly) infested cotton leaves assessed as decrease in egg production at 0.375 mg ai/seed measured 10 to 40 days post germination under green house conditions relative to untreated control. It counts as functional, organism-based.
For data set [21], the system named is Cotyledon. As to the kind of experiment: Drug uptake in Gossypium hirsutum (cotton) cotyledon at 0.375 mg ai/seed measured 10 days post germination under green house conditions. As to conditions: in vivo, other, 240 h. It counts as ADME.
In data set [22] the test system is Leaf. Nature of the data set: Drug uptake in Gossypium hirsutum (cotton) leaf at 0.375 mg ai/seed measured 10 days post germination under green house conditions. As to conditions: in vivo, other, 240 h. Type of data set: ADME.

As to `CN1COCN(Cc2cnc(Cl)s2)/C1=N\[N+](=O)[O-]` [THIAMETHOXAM], the result in data set [1], in [2], in [4], in data set [5], in data set [6] and in [7] was Active. Also, the result in data set [8] and in data set [9] was Active. Also, the Drug uptake entry in [3] and in data set [11] was “Active” each time. Further, in data set [10], the result was inactive.
As for `O=[N+]([O-])/N=C1\NCCN1Cc1ccc(Cl)nc1`, the outcome in data set [12], in [13], in data set [14], in data set [15], in data set [17] and in [18] was Active. Further, the result in data set [19] and in data set [20] was Active. Further, the result in data set [16] was inactive.
In the case of `O=[N+]([O-])NC1=NCCN1Cc1ccc(Cl)nc1` [IMIDACLOPRID], the Drug uptake entry in data set [21] and in data set [22] was “Active” each time.
